For 26 molecules, Ki results are on record in patent US8318749B2, “Quinazoline derivatives as NK3 receptor antagonists” (Hoffmann-La Roche Inc., priority 2008, dated 2012).

The target of this assay is T1, recombinant human NK3 receptor (Homo sapiens, UniProt P29371).
T1 construct: expressed in transfected cells; host or cells: HEK293 cells (transient expression), membrane preparation
T1 sequence (P29371 1-465): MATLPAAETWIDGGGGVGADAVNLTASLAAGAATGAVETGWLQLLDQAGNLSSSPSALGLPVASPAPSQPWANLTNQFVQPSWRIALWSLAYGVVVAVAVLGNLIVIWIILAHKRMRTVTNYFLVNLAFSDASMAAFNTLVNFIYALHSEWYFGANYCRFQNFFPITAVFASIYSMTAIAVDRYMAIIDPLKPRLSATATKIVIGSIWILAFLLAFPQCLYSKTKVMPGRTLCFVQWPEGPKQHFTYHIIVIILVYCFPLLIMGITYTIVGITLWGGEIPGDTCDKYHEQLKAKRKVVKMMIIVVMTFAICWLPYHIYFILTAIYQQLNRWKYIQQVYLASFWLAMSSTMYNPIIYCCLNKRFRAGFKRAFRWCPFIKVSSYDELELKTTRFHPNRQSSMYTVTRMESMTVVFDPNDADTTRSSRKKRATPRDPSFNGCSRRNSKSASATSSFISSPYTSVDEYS
Put plainly: [3H]SR142801 competition binding assay. As to conditions: membrane from HEK293 cells transiently expressing recombinant human NK3 receptor; radioligand [3H]SR142801; 75 min at RT. On the procedure: [^3H]SR142801 Competition Binding Assay
hNK3 receptor binding experiment were performed using [^3H]SR142801 (Catalog No. TRK1035, specific activity: 74.0 Ci/mmol, Amersham, GE Healthcare UK limited, Buckinghamshire, UK) and membrane isolated from HEK293 cells transiently expressing recombinant human NK3 receptor. After thawing, the membrane homogenates were centrifuged at 48,000×g for 10 min at 4° C., the pellets were resuspended in the 50 mM Tris-HCl, 4 mM MnCl2, 1 μM phosphoramidon, 0.1% BSA binding buffer at pH 7.4 to a final assay concentration of 5 μg protein/well. […] At the end of the incubation, membranes were filtered onto unitfilter (96-well white microplate with bonded GF/C filter preincubated 1 h in 0.3% PEI+0.3% BSA, Packard BioScience, Meriden, Conn.) with a Filtermate 196 harvester (Packard BioScience) and washed 4 times with ice-cold 50 mM Tris-HCl, pH 7.4 buffer. Nonspecific binding was measured in the presence of 10 μM SB222200 for both radioligands. The radioactivity on the filter was counted (5 min) on a Packard Top-count microplate scintillation counter with quenching correction after addition of 45 μl of microscint 40 (Canberra Packard S.A., Zürich, Switzerland) and shaking for 1 h. Inhibition curves were fitted according to the Hill equation: y=100/(1+(x/IC50)^nH), where nH=slope factor using Excel-fit 4 software (Microsoft). IC50 values were derived from the inhibition curve and the affinity constant (Ki) values were calculated using the Cheng-Prussoff equation Ki=IC50/(1+[L]/KD) where [L] is the concentration of radioligand and KD is its dissociation constant at the receptor, derived from the saturation isotherm. All experiments were performed in duplicate and the mean±standard error (SEM) of the individual Ki values was calculated.

`COc1cc2nc(N3CCC(Cc4ccccc4)(C(=O)NCc4cccnc4)CC3)nc(N)c2cc1OC` [Example 1, 1-(4-Amino-6,7-dimethoxy-quinazolin-2-yl)-4-benzyl-piperidine-4-carboxylic acid (pyridin-3-ylmethyl)-amide]: the Ki was 90.9 nM.
As for `COc1cc2nc(N3CCC(Cc4ccccc4)(C(=O)NCc4cccnc4)CC3)nc(O)c2cc1OC` [Example 2, 4-Benzyl-1-(4-hydroxy-6,7-dimethoxy-quinazolin-2-yl)-piperidine-4-carboxylic acid (pyridin-3-ylmethyl)-amide], the inhibitory constant (Ki) worked out at 66.1 nM.
For `COc1cc2nc(N3CCC(Cc4ccc(F)cc4)(C(=O)NCc4ccccc4)CC3)nc(N)c2cc1OC` [Example 4, 1-(4-Amino-6,7-dimethoxy-quinazolin-2-yl)-4-(4-fluoro-benzyl)-piperidine-4-carboxylic acid benzylamide], the Ki is 37.3 nM.
The value for `COc1cc2nc(N3CCC(Cc4ccccc4)(C(=O)NCc4ccccc4)CC3)nc(N)c2cc1OC` [Example 10, l-(4-Amino-6,7-dimethoxy-quinazolin-2-yl)-4-benzyl-piperidine-4-carboxylic acid benzylamide] was 18.3 nM.
For the molecule `COc1cc2nc(N3CCC(Cc4ccccc4)(C(=O)NCc4ccccc4)CC3)nc(N(C)C)c2cc1OC` [Example 14, 4-Benzyl-1-(4-dimethylamino-6,7-dimethoxy-quinazolin-2-yl)-piperidine-4-carboxylic acid benzylamide], the Ki is 73.2 nM.
`COc1cc2nc(N3CCC(Cc4ccccc4)(C(=O)NCc4ccccc4)CC3)nc(NC3CC3)c2cc1OC` [Example 15, 4-Benzyl-1-(4-cyclopropylamino-6,7-dimethoxy-quinazolin-2-yl)-piperidine-4-carboxylic acid benzylamide]: the Ki amounted to 69.3 nM.
As for `O=C(NCc1ccccc1)C1(Cc2ccccc2)CCN(c2nc(O)c3cc(F)c(Cl)cc3n2)CC1` [Example 16, 4-Benzyl-1-(7-chloro-6-fluoro-4-hydroxy-quinazolin-2-yl)-piperidine-4-carboxylic acid benzylamide], the Ki stood at 34.7 nM.
As for `COc1cc2nc(N3CCC(Cc4ccccc4)(C(=O)NCc4ccccc4)CC3)nc(O)c2cc1OC` [Example 17, 4-Benzyl-1-(4-hydroxy-6,7-dimethoxy-quinazolin-2-yl)-piperdine-4-carboxylic acid benzylamide], the Ki amounted to 3.6 nM.
Next, `COc1cc2nc(N3CCC(Cc4ccccc4)(C(=O)NC4Cc5ccccc5C4)CC3)nc(N)c2cc1OC` [Example 19, 1-(4-Amino-6,7-dimethoxy-quinazolin-2-yl)-4-benzyl-piperidine-4-carboxylic acid indan-2-ylamie]: 27.8 nM.
With `COc1cc2nc(N3CCC(Cc4ccccc4)(C(=O)NCc4ccc(OC(F)F)cc4)CC3)nc(N)c2cc1OC` [Example 20, 1-(4-Amino-6,7-dimethoxy-quinazolin-2-yl)-4-benzyl-piperidine-4-carboxylic acid 4-difluoromethoxy-benzylamide], the Ki came out at 46.3 nM.
Consider `COc1cc2nc(N3CCC(Cc4ccccc4)(C(=O)NC4CCCc5ccccc54)CC3)nc(N)c2cc1OC` (centres unmarked) [Example 23, 1-(4-Amino-6,7-dimethoxy-quinazolin-2-yl)-4-benzyl-piperidine-4-carboxylic acid (1,2,3,4-tetrahydro-naphthalen-1-yl)-amide], for which the Ki came to 46.6 nM.
The value for `COc1cc2nc(N3CCC(Cc4ccccc4)(C(=O)NC(C)c4ccc(Cl)cc4)CC3)nc(N)c2cc1OC` (centres unmarked) [Example 25, 1-(4-Amino-6,7-dimethoxy-quinazolin-2-yl)-4-benzyl-piperidine-4-carboxylic acid [1-(4-chloro-phenyl)-ethyl]-amide] was 95.1 nM.
As to `COc1cc2nc(N3CCC(Cc4ccccc4)(C(=O)NCc4ccc(Cl)c(Cl)c4)CC3)nc(N)c2cc1OC` [Example 28, 1-(4-Amino-6,7-dimethoxy-quinazolin-2-yl)-4-benzyl-piperidine-4-carboxylic acid 3,4-dichloro-benzylamide], the Ki was 52.4 nM.
In the case of `COc1cc2nc(N3CCC(Cc4ccccc4)(C(=O)NCc4ccc(N(C)C)cc4)CC3)nc(N)c2cc1OC` [Example 33, 1-(4-Amino-6,7-dimethoxy-quinazolin-2-yl)-4-benzyl-piperidine-4-carboxylic acid 4-dimethylamino-benzylamide], the Ki came out at 17.2 nM.
As to `COc1cc2nc(N3CCC(Cc4ccccc4)(C(=O)NC4Cc5ccccc5C4O)CC3)nc(N)c2cc1OC` (centres unmarked) [Example 38, 1-(4-Amino-6,7-dimethoxy-quinazolin-2-yl)-4-benzyl-piperidine-4-carboxylic acid (1-hydroxy-indan-2-yl)-amide], the Ki came to 7.5 nM.
Turning to `COc1cc2nc(N3CCC(Cc4ccccc4)(C(=O)N[C@H]4c5ccccc5C[C@@H]4O)CC3)nc(N)c2cc1OC` [Example 39, 1-(4-Amino-6,7-dimethoxy-quinazolin-2-yl)-4-benzyl-piperidine-4-carboxylic acid ((1S,2S)-2-hydroxy-indan-1-yl)-amide], the Ki was 3.6 nM.
With `COc1cc2nc(N3CCC(Cc4ccccc4)(C(=O)NC4CCc5ccccc5C4)CC3)nc(N)c2cc1OC` (centres unmarked) [Example 40, 1-(4-Amino-6,7-dimethoxy-quinazolin-2-yl)-4-benzyl-piperidine-4-carboxylic acid (1,2,3,4-tetrahydro-naphthalen-2-yl)-amide], the inhibitory constant (Ki) came to 10.1 nM.
Regarding `COc1cc2nc(N3CCC(Cc4ccccc4)(C(=O)NC(CO)c4ccccc4)CC3)nc(N)c2cc1OC` (centres unmarked) [Example 41, 1-(4-Amino-6,7-dimethoxy-quinazolin-2-yl)-4-benzyl-piperidine-4-carboxylic acid (2-hydroxy-1-phenyl-ethyl)-amide], the Ki was 48.7 nM.
As to `COc1cc2nc(N3CCC(Cc4ccccc4)(C(=O)NC4CCc5ccccc54)CC3)nc(N)c2cc1OC` (centres unmarked) [Example 44, 1-(4-Amino-6,7-dimethoxy-quinazolin-2-yl)-4-benzyl-piperidine-4-carboxylic acid indan-1-ylamide], the Ki was determined as 5.4 nM.
Regarding `COc1cc2nc(N3CCC(Cc4ccccc4)(C(=O)NCc4ccco4)CC3)nc(N)c2cc1OC` [Example 46, 1-(4-Amino-6,7-dimethoxy-quinazolin-2-yl)-4-benzyl-piperidine-4-carboxylic acid (furan-2-ylmethyl)-amide], the Ki came to 43.8 nM.
The value for `COc1cc2nc(N3CCC(Cc4ccccc4)(C(=O)N4CCCC4c4ccccc4)CC3)nc(N)c2cc1OC` (centres unmarked) [Example 47, [1-(4-Amino-6,7-dimethoxy-quinazolin-2-yl)-4-benzyl-piperidin-4-yl]-(2-phenyl-pyrrolidin-1-yl)-methanone] was 46.7 nM; that for `COc1cc2nc(N3CCC(Cc4ccccc4)(C(=O)N[C@H](C)c4ccccc4)CC3)nc(N)c2cc1OC` [Example 49, 1-(4-Amino-6,7-dimethoxy-quinazolin-2-yl)-4-benzyl-piperidine-4-carboxylic acid ((R)-1-phenyl-ethyl)-amide] was 20.6 nM; that for `CC[C@@H](NC(=O)C1(Cc2ccccc2)CCN(c2nc(N)c3cc(OC)c(OC)cc3n2)CC1)c1ccccc1` [Example 51, 1-(4-Amino-6,7-dimethoxy-quinazolin-2-yl)-4-benyzl-piperidine-4-carboxylic acid ((R)-1-phenyl-propyl)-amide] was 16.6 nM.
As to `COc1cc2nc(N3CCC(Cc4ccccc4)(C(=O)NC4CCCC4)CC3)nc(O)c2cc1OC` [Example 53, 4-Benzyl-1-(4-hydroxy-6,7-dimethoxy-quinazolin-2-yl)-piperidine-4-carboxylic acid cyclopentylamide], the inhibitory constant (Ki) worked out at 25.4 nM.
With `COc1cc2nc(N3CCC(Cc4ccccc4)(C(=O)N(C)Cc4ccccc4)CC3)nc(O)c2cc1OC` [Example 54, 4-Benzyl-1-(4-hydroxy-6,7-dimethoxy-quinazolin-2-yl)-piperidine-4-carboxylic acid benzyl-methyl-amide], the inhibition constant Ki was 4.8 nM.
With `COc1cc2nc(N3CCC(Cc4ccccc4)(C(=O)NC4Cc5ccccc5C4)CC3)nc(O)c2cc1OC` [Example 55, 4-Benzyl-1-(4-hydroxy-6,7-dimethoxy-quinazolin-2-yl)-piperidine-4-carboxylic acid indan-2-ylamide], the Ki stood at 11.1 nM.
